For data set [1], the system named is SARS-CoV-2 "NRC-03-nhCoV" virus. Nature of the data set: In vitro anti-SARS-CoV-2 activity, IC50 by reduction of virus-induced cytopathic effect in Vero-E6 cells. It is filed as cell-based. Conditions: read-out: inhibitory concentration 50% (IC50) against NRC-03-nhCoV.
Data set [2] in a line: Cytotoxicity (CC50) determination, crystal violet assay. It is filed as cell-based. The settings on record: African green monkey. As for the experimental part: To assess the half-maximal cytotoxic concentration (CC50), stock solutions of the compounds were prepared in 10% DMSO in ddH2O and diluted further to the working solutions with DMEM. The cytotoxic activity of the extracts was tested in VERO-E6 cells by using a crystal violet assay, as previously described with minor modifications. Briefly, the cells were seeded in 96 well-plates (100 µL/well at a density of 3 × 10^5 cells/mL) and incubated for 24 h at 37 °C in 5% CO2. Control cells were treated with 1% DMSO in DMEM (the concentration of DMSO in the highest concentration of the tested samples). After 24 h, the cells were treated with various concentrations of the compounds in triplicates. After 72 h, the supernatant was discarded, and the cell monolayers were fixed with 10% formaldehyde for 1 h at room temperature (RT). The fixed monolayers were, then, dried and stained with 50 µL of 0.1% crystal violet for 20 min on a bench rocker at RT. The monolayers were, then, washed and dried, and the crystal violet dye in each well was dissolved with 200 µL methanol for 20 min on a bench rocker at RT. […]
All experiments were performed in three biological repeats. […] The IC50 and CC50 curves represent the nonlinear fit of “normalize” of “transform” of the obtained data; their values were calculated using GraphPad prism as “best fit value”.

For another data set, the system named is SARS-CoV-2 Mpro. The settings on record: stated in the abstract for the reference standard; method and reference not given; cited from earlier work.
The mark [3] stands for this setting: Severe acute respiratory syndrome coronavirus 2, Vero C1008, 72 h.

Values after ≈ are worked out from the molar mass of the structure shown. Where two headings read alike, the source gives them in different places.

With `COc1c(O)cc2oc(-c3ccc(O)cc3)cc(=O)c2c1O` [Compound 5, Hispidulin], in data set [1] (setting [3]), the IC50 turned out to be 883 µg/mL (≈ 2940 µM). The CC50 at 72 h in data set [2] (Vero E6 cells, 72 h, crystal violet, read-out: half-maximal cytotoxic concentration (CC50)) is 14100 µg/mL (≈ 47100 µM).
With `COc1ccc(-c2cc(=O)c3c(O)c(OC)c(OC)c(OC)c3o2)cc1` [Compound 4, Gardenin B], the IC50 in data set [1] (Severe acute respiratory syndrome coronavirus 2, Vero C1008, Vero-E6 cells, 100 TCID50, 72 h, CPE reduction) amounted to 128 µg/mL (≈ 357 µM). Moreover, in data set [2], the CC50 at 72 h came out at 14100 µg/mL (≈ 39400 µM).
Consider `COc1ccc(-c2cc(=O)c3c(O)c(OC)c(O)cc3o2)cc1` [Compound 2, Pectolinarigenin], for which, in data set [1] (setting [3]), the IC50 came to 12.4 µg/mL (≈ 39.5 µM).
Turning to `CC(C)(C)OC(=O)Nc1cccn(C(CC2CC2)C(=O)NC(CC2CCNC2=O)C(=O)C(=O)NCc2ccccc2)c1=O` (stereo not shown) [KI], the IC50 in the data set with SARS-CoV-2 Mpro is on record as 66.72 µg/mL (≈ 112 µM).
For `COc1ccc(-c2cc(=O)c3c(OC)c(OC)c(OC)c(OC)c3o2)cc1` [Compound 3, Tangeretin], the IC50 in data set [1] (setting [3]) was found to be 2.5 µg/mL (≈ 6.71 µM).

Values taken from PMC8587465, “Naturally Available Flavonoid Aglycones as Potential Antiviral Drug Candidates against SARS-CoV-2” (Molecules, 2021).
